# In paper PMC8032764 (Scientific Reports, 2021):
# Columns and labels:
# Assay in all cases: Cerep binding
# Design in all cases: species or system human
# Adenosine A3 = test system: T1, Adenosine A3; conditions: 10 μM; [125I]AB-MECA; hum. recomb. (HEK-293)
# T1 construct: host or cells: HEK-293
# Muscarinic M5 = test system: T2, Muscarinic M5; conditions: 10 μM; [3H]4-DAMP; hum. recomb. (CHO)
# T2 construct: host or cells: CHO
# Melatonin MT1 (ML1A) = test system: T3, Melatonin MT1 (ML1A); conditions: 10 μM; [125I]2-iodomelatonin; hum. recomb. (CHO)
# T3 construct: host or cells: CHO
# [1] = test system: T4, Calcitonin gene related peptide (CGRP); conditions: 10 μM; [125I]hCGRPα; hum. recomb. (CHO)
# T4 construct: purchased Eurofins Cerep
# Muscarinic M1 = test system: T5, Muscarinic M1; conditions: 10 μM; [3H]pirenzepine; hum. recomb. (CHO)
# T5 construct: host or cells: CHO
# Muscarinic M3 = test system: T6, Muscarinic M3; conditions: 10 μM; [3H]4-DAMP; hum. recomb. (CHO)
# T6 construct: host or cells: CHO
# Chemokine CCR1 = test system: T7, Chemokine CCR1; conditions: 10 μM; [125I]MIP-1a; hum. recomb. (HEK-293)
# T7 construct: purchased Eurofins Cerep
# Histamine H1 = test system: T8, Histamine H1; conditions: 10 μM; [3H]pyrilamine; hum. recomb. (HEK-293)
# T8 construct: host or cells: HEK-293
# Serotonin 5-HT3 = test system: T9, Serotonin 5-HT3; conditions: 10 μM; [3H]BRL 43694; hum. recomb. (CHO)
# T9 construct: purchased Eurofins Cerep
compound,measurement,setting,value
Cc1onc(-c2ccc(F)cc2)c1COc1ccc(C(=O)N2CCS(=O)(=O)CC2)cn1 [basmisanil],% Inhibition,Adenosine A3,6%
same,% Inhibition,Muscarinic M5,-7%
same,% Inhibition,Melatonin MT1 (ML1A),14%
same,% Inhibition,[1],-6%
same,% Inhibition,Muscarinic M1,6%
same,% Inhibition,Muscarinic M3,4%
same,% Inhibition,Chemokine CCR1,-2%
same,% Inhibition,Histamine H1,10%
same,% Inhibition,Serotonin 5-HT3,8%
